Reference: patent US20190284243A1, “BINDING PEPTIDES” (University of Copenhagen, priority 2016, published 2019)
Bridge positions count the residues as written; N and C are the ends. Square brackets hold non-standard residues; d marks the D form. Ends that are not written are not given here. Aha = [N-]=[N+]=NCC[C@H](N)C(=O)O; Pra = C#CC[C@H](N)C(=O)O

Legend:
Il1 [1] = experiment: Binding of β-bodies with the target compound (Table 1), Il1; details: Purpose Il1; tested for binding with the target compound
Gephyrin = biological target: T1, Gephyrin (Homo sapiens, UniProt Q9NQX3); experiment: Binding of β-bodies with the target compound (Table 1), Gephyrin; details: Purpose Gephyrin; tested for binding with the target compound
T1 sequence (Q9NQX3 1-736): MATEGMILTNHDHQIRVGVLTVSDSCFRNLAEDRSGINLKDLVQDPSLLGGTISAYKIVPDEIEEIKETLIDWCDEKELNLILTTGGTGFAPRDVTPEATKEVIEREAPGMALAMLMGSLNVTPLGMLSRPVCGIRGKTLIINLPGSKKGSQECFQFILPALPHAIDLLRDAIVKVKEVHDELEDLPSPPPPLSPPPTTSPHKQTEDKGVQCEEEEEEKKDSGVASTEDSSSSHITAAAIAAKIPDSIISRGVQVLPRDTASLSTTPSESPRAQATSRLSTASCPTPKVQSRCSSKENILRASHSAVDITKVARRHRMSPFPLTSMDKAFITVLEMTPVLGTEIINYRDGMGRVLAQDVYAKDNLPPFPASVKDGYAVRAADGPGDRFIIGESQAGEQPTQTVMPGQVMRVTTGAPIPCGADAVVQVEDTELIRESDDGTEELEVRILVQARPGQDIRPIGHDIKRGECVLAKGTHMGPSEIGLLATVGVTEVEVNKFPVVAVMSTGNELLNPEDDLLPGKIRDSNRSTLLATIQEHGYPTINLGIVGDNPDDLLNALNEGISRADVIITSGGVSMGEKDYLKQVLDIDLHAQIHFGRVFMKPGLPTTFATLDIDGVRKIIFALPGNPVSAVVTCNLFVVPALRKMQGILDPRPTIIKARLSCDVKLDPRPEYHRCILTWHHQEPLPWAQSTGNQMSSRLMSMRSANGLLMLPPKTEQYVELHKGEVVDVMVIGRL

Beads modified with (2) = experiment: Fluorescent β-bodies incubated with beads modified with (2); assay type: binding; details: for Kd: bead-(2) with fluorescent β-body; for Binding of fluorescent β-body to beads modified with (2): FIG. 8
Protocol: (§1) A fluorescent probe was attached to (1), (2) AND (3). The fluorescent β-bodies were then incubated with: • Beads modified with NHAc; or • Beads modified with (1); or • Beads modified with (2).

Interleukin 1 = experiment: Sandwich binding assay on PEGA beads, IL1 model
From the text: (§2) For sandwich assays β-bodies identified as described in Examples 1 and 2 were synthesized by standard Fmoc-based solid phase peptide synthesis on biocompatible PEGA-beads (e.g. PEGA1900 which has a porosity allowing penetration of proteins up to 70 kDa). PEGA beads are available from Sigma Aldrich.
The intensity of the fluorescence is a measure of the concentration of IL1 and the affinity of the interaction.

POI = experiment: Screening of OBOC β-body library with AMC-labelled POI; assay type: binding; details: POI 10 nM, 2 h incubation; site of interaction not determined
Protocol: The library of K(TX)4PG(XT)4EG was synthesized on HMBA-PEGA1900 resin by the split—mix method essentially as described in Christensen et al, 2003 and was deprotected with 95% TFA. The POI was dissolved in phosphate buffer at pH 7.5, labeled with aminomethylcoumarin using AMC-(CH2)3—CO—OSu (4 eqv, 30 min) and purified by FPLC. […] The protein was dissolved at 100 nM concentration and the library was incubated for 2 h with this solution at 10 fold dilution (10 nM). The library was inspected under a ICX73 fluorescence microscope using a […]. Beads with strong AMC-fluorescence were collected in separate Eppendorph tubes using a microsyringe. The beads were washed and 5% triethylamine in water was added. After incubation overnight the supernatant was transferred to another eppendorph tube and the bead was washed with 70% acetonitril/water. The combined solutions were concentrated to dryness twice using a speedvacc and the residue dissolved in 50% acetonitrile/water. […] The site of interaction on the POI was not determined.

interleukin 6 = interleukin 6 (Homo sapiens, UniProt P05231); experiment: Sandwich binding assay on PEGA beads, IL6 model
Protocol: as §2
The sandwich binding assay was performed as follows: two beads with ligand E prepared as described above were contained in separate wells and were added to 50 μL MilliQ water in a microtiter well containing 100 nM of the peptide F. […]
The beads were washed twice with PBS to improve signal to noise. The well was imaged with an ICX73 fluorescence microscope (Olympus) using a ROX filter cube.

Il1 [2] = experiment: Selectivity assay GFP vs. IL1: beads incubated with ROX-IL1; assay type: binding; details: ROX-IL1 100 nM, both bead types incubated at the same time
From the text: The same experiment was repeated with IL1.

GFP = GFP 60 nM, both bead types incubated at the same time
Protocol: GFP (60 nM) was incubated with different β-body beads at the same time, a first type of β-body beads specific for GFP (β-body SEQ ID NO: 1;
[…]) and a second type of β-body beads specific for IL1 (β-body SEQ ID NO: 5).

[3] = biological target: T2, glycine receptor binding site of gephyrin (peptide binding site) (Homo sapiens, UniProt Q9NQX3); experiment: Affinity of β-bodies to the gephyrin peptide binding site; details: compared with original peptide SEQ ID NO: 41
T2 sequence (Q9NQX3 1-736): T1 sequence (Q9NQX3 1-736)
Protocol: The following β-body TTVTGTLYPGTLLGFETT (SEQ ID NO: 41) underwent optimization via alanine scanning. The resulting 9 β-bodies were tested for their affinity to the glycine receptor binding site of gephyrin (peptide binding site). The affinity of the original peptide could be improved and optimized β-bodies were found having the following sequences CTVTGTLYPGTLLGFETC (SEQ ID NO: 42) and TTVTGTLYPGTLLGAATT (SEQ ID NO: 43).

Beads modified with (1) = experiment: Fluorescent β-bodies incubated with beads modified with (1); assay type: binding; details: FIG. 8
Protocol: as §1

[4] = ligand 1 beads + 100 nM ligand 2, Interleukin 1 50 nM, 20 min
[5] = ligand 1 beads + 100 nM ligand 2, without IL1 (interaction between the two β-bodies)

Chain of interleukin 6 (P05231 30-212, species assumed): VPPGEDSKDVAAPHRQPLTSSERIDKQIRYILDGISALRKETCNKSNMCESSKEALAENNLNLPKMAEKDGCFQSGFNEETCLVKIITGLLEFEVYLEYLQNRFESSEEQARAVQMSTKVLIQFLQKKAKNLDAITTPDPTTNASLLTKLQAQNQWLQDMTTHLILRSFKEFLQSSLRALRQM

EPraDTYTETYPGRTITWTIAbu(N3)DG (E[Pra]DTYTETYPGRTITWTI[Aha]DG; triazole 2-19 (inferred)) [SEQ ID NO: 9]
Binding (Il1 [1]): High

Pra-YTYTDTTPGVTRTLTWG-Abu(N3)-OH ([Pra]YTYTDTTPGVTRTLTWG[Aha]-OH; triazole 1-19 (inferred)) [SEQ ID NO: 38]
Binding (Gephyrin): Medium

TFTFTFPGLTRTHT [SEQ ID NO: 59]
Kd (Beads modified with (2)): 5000 nM

TKTDRVTEPGRTMTFTGT (Designed peptide) [SEQ ID NO: 7]
ROX fluorescence accumulation in the beads (Interleukin 1; [4]): positive signal
ROX fluorescence accumulation in the beads (Interleukin 1; ligand 1 beads + 100 nM ligand 2, Interleukin 1 50 nM, 20 min, listed as B): accumulation of significant ROX fluorescence
ROX fluorescence accumulation in the beads (Interleukin 1; [5]): no signal
ROX fluorescence accumulation in the beads (Interleukin 1; ligand 1 beads + 100 nM ligand 2, without IL1 (interaction between the two β-bodies), listed as B): No fluorescence accumulation over background

KTYTYNYTGPGRTSTATLTEG (Designed peptide) [SEQ ID NO: 56]
Binding of library beads to AMC-labelled POI (AMC-fluorescence) (POI): strong binding

PraTWTLTHTPGTMEITET-Abu(N3)-OH ([Pra]TWTLTHTPGTMEITET[Aha]-OH; triazole 1-18 (inferred)) [SEQ ID NO: 39]
Binding (Gephyrin): Medium

HTWTDTLTRPGYTVTHTLTL (Designed peptide) [SEQ ID NO: 17]
ROX fluorescence accumulation in the bead (interleukin 6; ligand 5 bead + 100 nM ligand 6, interleukin 6 20 nM, 20 min, listed as E): accumulation of significant ROX fluorescence
ROX fluorescence accumulation in the bead (interleukin 6; ligand 5 bead + 100 nM ligand 6, interleukin 6 20 nM, 20 min, listed as ligand 5): positive signal
ROX fluorescence accumulation in the bead (interleukin 6; ligand 5 bead + 100 nM ligand 6, without IL6 (interaction between the two β-bodies), listed as E): No fluorescence accumulation over background
ROX fluorescence accumulation in the bead (interleukin 6; ligand 5 bead + 100 nM ligand 6, without IL6 (interaction between the two β-bodies), listed as ligand 5): no signal

ETDTYTETYPGYTSTWTITD (Designed peptide) [SEQ ID NO: 5]
Binding of β-body beads to IL1 (Il1 [2]): underwent binding
Binding of β-body beads to GFP (GFP): only β-body beads specific for GFP underwent binding
ROX fluorescence accumulation in the beads (Interleukin 1; [4]): positive signal
ROX fluorescence accumulation in the beads (Interleukin 1; ligand 1 beads + 100 nM ligand 2, Interleukin 1 50 nM, 20 min, listed as A): accumulation of significant ROX fluorescence
ROX fluorescence accumulation in the beads (Interleukin 1; [5]): no signal
ROX fluorescence accumulation in the beads (Interleukin 1; ligand 1 beads + 100 nM ligand 2, without IL1 (interaction between the two β-bodies), listed as A): No fluorescence accumulation over background

Pra-TVTGTLYPGTLLGFET-Abu(N3) ([Pra]TVTGTLYPGTLLGFET[Aha]; triazole 1-18 (inferred)) [SEQ ID NO: 34]
affinity to the glycine receptor binding site of gephyrin [3]: unchanged

Abu(N3)-TVTGTLYPGTLLGFET-Pra ([Aha]TVTGTLYPGTLLGFET[Pra]; triazole 1-18 (inferred)) [SEQ ID NO: 44]
affinity to the glycine receptor binding site of gephyrin [3]: unchanged

KTGTQNLTGPGRTHTQTATEG (Designed peptide; PEPTIDE (1)..(21) GFP) [SEQ ID NO: 3]
Binding of library beads to AMC-labelled POI (AMC-fluorescence) (POI): strong binding

Pra-ITKTARYTMPGKTLTKTGTL-Abu(N3)-G ([Pra]ITKTARYTMPGKTLTKTGTL[Aha]G; triazole 1-22 (inferred)) [SEQ ID NO: 46]
Binding (Gephyrin): Medium

CTVTGTLYPGTLLGFETC (Designed peptide) [SEQ ID NO: 42]
affinity to the glycine receptor binding site of gephyrin [3]: improved

TMTDTDTYPGFTDTLTHA (Designed peptide) [SEQ ID NO: 16]
ROX fluorescence accumulation in the bead (interleukin 6; ligand 5 bead + 100 nM ligand 6, interleukin 6 20 nM, 20 min): positive signal
ROX fluorescence accumulation in the bead (interleukin 6; ligand 5 bead + 100 nM ligand 6, interleukin 6 20 nM, 20 min, listed as F): accumulation of significant ROX fluorescence
ROX fluorescence accumulation in the bead (interleukin 6; ligand 5 bead + 100 nM ligand 6, without IL6 (interaction between the two β-bodies)): no signal
ROX fluorescence accumulation in the bead (interleukin 6; ligand 5 bead + 100 nM ligand 6, without IL6 (interaction between the two β-bodies), listed as F): No fluorescence accumulation over background

TTYTYPGDTFTI (Designed peptide) [SEQ ID NO: 58]
Binding of fluorescent β-body to beads modified with (2) (Beads modified with (2)): high affinity
Binding of fluorescent β-body to beads modified with (1) (Beads modified with (1)): best bind

TYTYTYPGLTRTHT [SEQ ID NO: 57]
Binding of fluorescent β-body to beads modified with (2) (Beads modified with (2)): best bind
Kd (Beads modified with (2)): 700 nM
Binding of fluorescent β-body to beads modified with (1) (Beads modified with (1)): high affinity

TITKTARYTMPGKTLTKTGTLTG (Designed peptide) [SEQ ID NO: 45]
Binding (Gephyrin): Medium

TTVTGTLYPGTLLGAATT (Designed peptide) [SEQ ID NO: 43]
affinity to the glycine receptor binding site of gephyrin [3]: improved

TWTETYTWTEPGDTQTLTITNT (Designed peptide) [SEQ ID NO: 11]
Binding (Il1 [1]): High

KTQTYNGTGPGRTGTVTYTEG (Designed peptide) [SEQ ID NO: 55]
Binding of library beads to AMC-labelled POI (AMC-fluorescence) (POI): strong binding
